Experimental data taken from patent US20140235774A1, “FLUORESCENT COMPOUND, METHOD FOR PRODUCING THE SAME, AND FLUORESCENT RESIN COMPOSITION” (Shin-Etsu Chemical Co., Ltd., priority 2013, published 2014).
In brackets after ≈: the same amount, converted by molar mass.

Tests used:
Format in all cases: physicochemical
[1] = Ultraviolet-visible absorption spectrum in solvent
Procedure: (§1) The ultraviolet-visible absorption spectrum and the fluorescent spectrum of Compound 1 were measured in ethanol. The longest absorption maximum wavelength was 359 nm, the molar absorbance coefficient was 6.50×10^4, and the maximum fluorescent wavelength was 410 nm (excitation wavelength: 359 nm).
(§2) The ultraviolet-visible absorption spectrum and the fluorescent spectrum of Compound 2 were measured in ethanol. The longest absorption maximum wavelength was 359 nm, the molar absorbance coefficient was 7.88×10^4, and the maximum fluorescent wavelength was 410 nm (excitation wavelength: 359 nm).
(§3) The ultraviolet-visible absorption spectrum and the fluorescent spectrum of Compound 3 were measured in tetrahydrofuran. The longest absorption maximum wavelength was 363 nm, the molar absorbance coefficient was 2.65×10^4, and the maximum fluorescent wavelength was 413 nm (excitation wavelength: 363 nm).
(§4) The ultraviolet-visible absorption spectrum and the fluorescent spectrum of Compound 4 were measured in tetrahydrofuran. The longest absorption maximum wavelength was 363 nm, the molar absorbance coefficient was 2.83×10^4, and the maximum fluorescent wavelength was 413 nm (excitation wavelength: 363 nm)

[2] = Fluorescent spectrum in solvent
Procedure: as §1, §2, §3, §4

[3] = Solubility in transparent silicone resin SIM-360 base compound (portion-wise addition until transparent); conditions: for solubility in the SIM-360 base compound: room temperature, with stirring
Procedure: Into a glass vial, 10.1 mg of Compound 1 produced in Example 1 was weighed and added with a transparent silicone resin, the SIM-360 base compound (produced by Shin-Etsu Chemical Co., Ltd.) portion-wise at room temperature with stirring. Dissolution was determined when the solution turned transparent. The solubility was calculated to be 1 mmol/L. To this mixture, 10% by mass of a curing agent was added on the basis of the base compound and mixed. After defoaming, the mixture was heated at 150° C. for 30 minutes to be cured, giving a fluorescent silicone resin composition. It was possible to change the concentration of Compound 1 freely as long as the concentration was less than or equal to the above-described concentration.

[4] = in ethanol, excitation wavelength 359 nm
[5] = in tetrahydrofuran, excitation wavelength 363 nm

| SMILES | longest absorption maximum wavelength ([1]; in ethanol) [nm] | molar absorbance coefficient ([1]; in ethanol) | maximum fluorescent wavelength [2, 4] [nm] | solubility in the SIM-360 base compound [3] [µM] | solubility in the SIM-360 base compound (result in words) ([3]; measured as in Example 6) | longest absorption maximum wavelength ([1]; in tetrahydrofuran) [nm] | molar absorbance coefficient ([1]; in tetrahydrofuran) | maximum fluorescent wavelength [2, 5] [nm] |
| --- | --- | --- | --- | --- | --- | --- | --- | --- |
| C[Si](C)(C)O[Si](C)(O[Si](C)(C)C)c1cccc(N(c2ccccc2)c2ccc(-c3ccc(N(c4ccccc4)c4ccc(-c5ccc(N(c6ccccc6)c6ccc(-c7ccc(N(c8ccccc8)c8cccc([Si](C)(O[Si](C)(C)C)O[Si](C)(C)C)c8)cc7)cc6)cc5)cc4)cc3)cc2)c1 [Compound 2, N,N′-bis[phenyl-3-(1-trimethylsoxy-1,3,3,3-tetramethyldisiloxan-1-yl)phenylaminobiphenyl-4′-yl]-N,N-diphenylbenzidine] | 359 | 7.88×10^4 | 410 | 500 (≈ 708 µg/mL) |  |  |  |  |
| Cc1ccc(N(c2ccc(C)cc2)c2ccc(-c3ccc(N(c4ccc(-c5ccc(N(c6ccc(C)cc6)c6ccc(C)cc6)cc5)cc4)c4cccc([Si](C)(O[Si](C)(C)C)O[Si](C)(C)C)c4)cc3)cc2)cc1 [Compound 1, N,N-bis[4′-(N′,N′-di-4-tolylamino)biphenyl-4-yl]-3-(1-trimethylsiloxy-1,3,3,3-tetramethyldisiloxan-1-yl)aniline] | 359 | 6.50×10^4 | 410 | 1000 (≈ 1010 µg/mL) |  |  |  |  |
| Cc1cccc(N(c2ccc(-c3ccc(N(c4ccccc4)c4ccc(-c5ccc(N(c6ccccc6)c6ccc(-c7ccc(N(c8cccc(C)c8)c8cccc(C)c8)cc7)cc6)cc5)cc4)cc3)cc2)c2cccc(C)c2)c1 [Compound 6, reference compound] |  |  |  |  | not dissolved at all |  |  |  |
| C[Si](C)(C)O[Si](C)(C)c1cccc(N(c2ccc(-c3ccc(N(c4ccccc4)c4ccc(-c5ccc(N(c6ccccc6)c6ccccc6)cc5)cc4)cc3)cc2)c2ccc(-c3ccc(N(c4ccccc4)c4ccc(-c5ccc(N(c6ccccc6)c6ccccc6)cc5)cc4)cc3)cc2)c1 [Compound 4, N,N-bis[4′-(N′-phenyl-N′-4′-diphenylaminobiphenyl-4-yl)biphenyl-4-yl]-3-(pentamethyldisiloxan-1-yl)aniline] |  |  |  | 100 (≈ 136 µg/mL) |  | 363 | 2.83×10^4 | 413 |
| C[Si](C)(C)O[Si](C)(O[Si](C)(C)C)c1cccc(N(c2ccc(-c3ccc(N(c4ccccc4)c4ccc(-c5ccc(N(c6ccccc6)c6ccccc6)cc5)cc4)cc3)cc2)c2ccc(-c3ccc(N(c4ccccc4)c4ccc(-c5ccc(N(c6ccccc6)c6ccccc6)cc5)cc4)cc3)cc2)c1 [Compound 3, N,N-bis[4′-(N′-phenyl-N′-4′-diphenylaminobiphenyl-4-yl)biphenyl-4-yl]-3-(1-trimethylsiloxy-1,3,3,3-tetramethyldisiloxan-1-yl)aniline] |  |  |  | 100 (≈ 144 µg/mL) |  | 363 | 2.65×10^4 | 413 |
